Results published in patent publication US20240277658A1, “NLRP3 ACTIVATORS FOR USE IN THE TREATMENT OF INFECTIOUS DISEASES OR CANCER BY ACTIVATING NLRP3 INFLAMMASOME” (ALBERT-LUDWIGS-UNIVERSITÄT FREIBURG, priority 2020, published 2024).
“And” between values parts separate entries of the source, which are not always exact repeats. Equal entries are not always repeated. Where two headings read alike, the source gives them in different places.

Columns and labels:
NLRP3 inflammasome = target: T1, NLRP3 inflammasome (Mus musculus, UniProt Q8R4B8); test: IL-1β release from LPS-primed BMDCs (ELISA) as readout of NLRP3 inflammasome activation; assay type: cell-based; details: compound 50 μM; for Average (% positive control): IL-1β release, positive control nigericin 5 μM; for Average IL-1β / IL-1β: LPS-primed BMDCs; for IL-1β: single replicates
T1 construct: endogenous in cells; host or cells: primary mouse bone marrow-derived dendritic cells (BMDCs), LPS-primed
How it was run: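 NLRP3 inflammasome activation was read out as IL-1β released into the supernatant, measured by ELISA. Murine BMDCs were primed with LPS (50 ng ml^−1, 3 hours), then incubated with compounds for 3 hours, with each condition run in three technical replicates. Nigericin at 5 μM acted as the positive control activator, and IL-1β release was also expressed as a percentage of that control.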

BMDCs = test: LDH release (lytic cell death, pyroptosis) from LPS-primed BMDCs; assay type: cell-based, mouse; details: compound 50 μM; for Average (% positive control): LDH release, positive control nigericin 5 μM; for cytotoxicity at 50 µM: Mus musculus, BMDC, LPS-primed BMDCs
How it was run: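 Mouse BMDCs (7-9 days differentiated, GM-CSF) primed with 50 ng ml^−1 E. coli K12 LPS for 3 hours, then exposed 3 hours to compounds (50 μM unless indicated) or activators (nigericin 5 μM; R837, CL097 100 μM). Lytic death measured as LDH release by colorimetric assay, triplicate wells.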

[1] = read-out: Average LDH release (% of max.)
[2] = single replicates, read-out: LDH release (% of max.)

T1 sequence (Q8R4B8 whole entry): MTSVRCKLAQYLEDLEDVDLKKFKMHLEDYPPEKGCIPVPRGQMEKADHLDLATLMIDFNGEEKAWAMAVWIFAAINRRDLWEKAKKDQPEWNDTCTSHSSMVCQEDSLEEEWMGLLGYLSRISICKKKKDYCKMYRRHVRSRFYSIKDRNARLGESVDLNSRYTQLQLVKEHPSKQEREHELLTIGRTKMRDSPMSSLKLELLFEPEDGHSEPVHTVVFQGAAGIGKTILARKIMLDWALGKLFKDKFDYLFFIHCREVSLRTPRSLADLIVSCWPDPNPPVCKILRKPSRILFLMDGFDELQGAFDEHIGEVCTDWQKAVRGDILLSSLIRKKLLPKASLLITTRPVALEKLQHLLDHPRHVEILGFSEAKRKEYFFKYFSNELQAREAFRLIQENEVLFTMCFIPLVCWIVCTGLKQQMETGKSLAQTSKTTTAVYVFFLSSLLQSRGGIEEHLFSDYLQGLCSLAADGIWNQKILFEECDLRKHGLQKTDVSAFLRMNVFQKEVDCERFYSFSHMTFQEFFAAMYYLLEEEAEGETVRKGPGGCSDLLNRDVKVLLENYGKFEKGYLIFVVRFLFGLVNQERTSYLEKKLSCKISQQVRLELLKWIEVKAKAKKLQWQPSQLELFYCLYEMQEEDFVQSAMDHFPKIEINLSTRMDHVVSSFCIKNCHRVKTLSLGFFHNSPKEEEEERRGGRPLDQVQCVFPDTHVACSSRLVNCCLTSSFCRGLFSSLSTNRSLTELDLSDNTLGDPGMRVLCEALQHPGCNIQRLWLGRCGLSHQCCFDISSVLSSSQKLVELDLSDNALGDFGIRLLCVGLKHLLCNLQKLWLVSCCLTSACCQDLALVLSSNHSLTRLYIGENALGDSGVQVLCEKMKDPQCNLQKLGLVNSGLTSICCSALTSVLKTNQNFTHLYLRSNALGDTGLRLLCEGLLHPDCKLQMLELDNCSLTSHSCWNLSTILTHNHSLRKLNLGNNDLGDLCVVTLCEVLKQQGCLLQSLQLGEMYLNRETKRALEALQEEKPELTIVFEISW

| SMILES | Average (% positive control) (NLRP3 inflammasome) | Average IL-1β (NLRP3 inflammasome) [ng/mL] | IL-1β (NLRP3 inflammasome) | Average (% positive control) (BMDCs) | cytotoxicity at 50 µM (BMDCs; [1]) [%] | cytotoxicity at 50 µM (BMDCs; [2]) [%] |
| --- | --- | --- | --- | --- | --- | --- |
| O=C(Nc1ccccc1)Nc1ccc(NC(=O)c2ccoc2)cc1 [L01.092, N-{4-[(phenylcarbamo-yl)amino]phenyl}furan-3-carboxamide] | 15.066 | 1.080 | 1.253 ng/mL and 1.060 ng/mL and 0.927 ng/mL | 20.483 | 15 | 16.4 |
| CC(C)CC(NC(=O)Nc1cccc(N2CCC(C)CC2)c1)c1nc(-c2nnc[nH]2)no1 (stereo not drawn) [L01.093, 3-{3-methyl-1-[3-(4H-1,2,4-triazol-3-yl)-1,2,4-oxadiazol-5-yl]butyl}-1-[3-(4-methylpiperidin-1-yl)phenyl]urea] | 0.998 | 0.072 | 0.056 ng/mL and 0.050 ng/mL and 0.108 ng/mL | 11.139 | 8.15 | 6.68 |
| CC(=NO)c1ccc(NC(=O)Nc2ccccc2)cc1 [L01.095, 3-{4-[1-(hydroxyimino)-ethyl]phenyl}-1-phenyl-urea] | 1.703 | 0.122 | 0.137 ng/mL and 0.128 ng/mL and 0.102 ng/mL | 7.959 | 5.82 | 5.21 |
| CC(C)C(NC(=O)Nc1ccc(Cl)cc1)c1nc(-c2ccccc2)no1 (stereo not drawn) [L01.097, 1-(4-chlorophenyl)-3-[2-methyl-1-(3-phenyl-1,2,4-oxadiazol-5-yl)-propyl]urea] | 1.765 | 0.126 | 0.121 ng/mL and 0.143 ng/mL and 0.116 ng/mL | 51.271 | 37.5 | 39.5 |
| O=C(Nc1cccc(S(=O)(=O)C2CCCC2)c1)N1CCCCC1c1nc(-c2ccccc2)no1 (stereo not drawn) [L01.099, N-[3-(cyclopentane-sulfonyl)phenyl]-2-(3-phenyl-1,2,4-oxadiazol-5-yl)piperidine-1-carboxamide] | 0.932 | 0.067 | 0.074 ng/mL and 0.067 ng/mL and 0.059 ng/mL | 13.410 | 9.81 | 10.6 |
| O=C(Nc1ccccc1)Nc1ccc(NC(=O)C2CCOC2)cc1 (stereo not drawn) [L01.101, N-{4-[(phenylcarbamo-yl)amino]phenyl}oxo-lane-3-carboxamide] | 15.216 | 1.091 | 1.160 ng/mL and 1.071 ng/mL and 1.041 ng/mL | 27.161 | 19.9 | 19.4 |
| O=C(Nc1ccccc1)Nc1cccc(NC(=O)C2CCCC2)c1 [L01.103, N-{3-[(phenylcarbamo-yl)amino]phenyl}cyclo-pentanecarboxamide] | 1.624 | 0.116 | 0.060 ng/mL and 0.049 ng/mL and 0.240 ng/mL | 10.791 | 7.89 | 6.58 |
| O=C(Nc1ccccc1)Nc1ccc(NC(=O)C2CCCC2)cc1 [L01.104, N-{4-[(phenylcarbamo-yl)amino]phenyl}cyclo-pentanecarboxamide] | 16.230 | 1.163 | 1.103 ng/mL and 1.142 ng/mL and 1.246 ng/mL | 24.873 | 18.2 | 17.2 |
| O=C(Nc1ccccc1)Nc1cccc([N+](=O)[O-])c1 [L01.108, 3-(3-nitrophenyl)-1-phenylurea] | 0.973 | 0.070 | 0.076 ng/mL and 0.061 ng/mL and 0.072 ng/mL | 14.362 | 10.5 | 10.9 |
| CC(=O)Nc1ccc(NC(=O)Nc2ccccc2)cc1 [L01.109, N-{4-[(phenylcarbamo-yl)amino]phenyl}acet-amide] | 1.269 | 0.091 | 0.120 ng/mL and 0.083 ng/mL and 0.070 ng/mL | 10.912 | 7.98 | 8.46 |
| CC1Oc2ccc(NC(=O)Nc3ccccc3)cc2NC1=O (stereo not drawn) [L01.110, 3-(2-methyl-3-oxo-3,4-dihydro-2H-1,4-benzox-azin-6-yl)-1-phenylurea] | 36.599 | 2.624 | 2.505 ng/mL and 2.943 ng/mL and 2.423 ng/mL | 46.015 | 33.7 | 34.8 |
| N#Cc1ccc(NC(=O)NC(CO)c2nc(-c3ccccc3)no2)cc1 (stereo not drawn) [L01.112, 1-(4-cyanophenyl)-3-[2-hydroxy-1-(3-phenyl-1,2,4-oxadiazol-5-yl)-ethyl]urea] | 0.955 | 0.068 | 0.075 ng/mL and 0.069 ng/mL and 0.061 ng/mL | 10.010 | 7.32 | 7.96 |
| CCc1ccc(Cl)c(CC)c1NC(=O)NC(c1nc(-c2cccnc2)no1)C(C)C (stereo not drawn) [L01.113, 1-(3-chloro-2,6-diethyl-phenyl)-3-{2-methyl-1-[3-(pyridin-3-yl)-1,2,4-oxadiazol-5-yl]propyl}-urea] | 15.691 | 1.125 | 1.145 ng/mL and 1.165 ng/mL and 1.064 ng/mL | 49.256 | 36 | 37.4 |
| CC(C)C(NC(=O)Nc1ccc2c(c1)COC2)c1nc(-c2cccnc2)no1 (stereo not drawn) [L01.114, 3-(1,3-dihydro-2-benzo-furan-5-yl)-1-{2-meth-yl-1-[3-(pyridin-3-yl)-1,2,4-oxadiazol-5-yl]-propyl}urea] | 1.049 | 0.075 | 0.073 ng/mL and 0.081 ng/mL and 0.072 ng/mL | 12.801 | 9.37 | 9.46 |
| O=C(NCc1nc(-c2ccsc2)no1)Nc1cc(Cl)cc(Cl)c1 [L01.115, 1-(3,5-dichlorophenyl)-3-{[3-(thiophen-3-yl)-1,2,4-oxadiazol-5-yl]-methyl}urea] | 1.584 | 0.114 | 0.122 ng/mL and 0.108 ng/mL and 0.111 ng/mL | 30.346 | 22.2 | 23.6 |
| Cc1ccc(NC(=O)Nc2ccccc2)cc1NC(=O)C(F)F [L01.116, 2,2-difluoro-N-{2-meth-yl-5-[(phenylcarbamo-yl)amino]phenyl}acet-amide] | 16.099 | 1.154 | 1.107 ng/mL and 1.192 ng/mL and 1.163 ng/mL | 24.685 | 18.1 | 18 |
| O=C(Nc1ccccc1)Nc1cccc(OC(F)F)c1 [L01.120, 3-[3-(difluoromethoxy)-phenyl]-1-phenylurea] | 2.800 | 0.201 | 0.207 ng/mL and 0.200 ng/mL and 0.196 ng/mL | 33.449 | 24.5 | 25 |
| CN(C)Cc1ccc(NC(=O)Nc2ccccc2)cc1 [L01.121, 3-{4-[(dimethylamino)-methyl]phenyl}-1-phen-ylurea] | 0.906 | 0.065 | 0.066 ng/mL and 0.068 ng/mL and 0.060 ng/mL | 11.907 | 8.71 | 7.8 |
| O=C(Nc1ccccc1)Nc1cccc(NC(=O)NC2CC2)c1 [L01.122, 3-cyclopropyl-1-{3-[(phenylcarbamoyl)-amino]phenyl}urea] | 1.214 | 0.087 | 0.072 ng/mL and 0.093 ng/mL and 0.095 ng/mL | 11.054 | 8.09 | 9.16 |
| Cc1ccc(NC(=O)Nc2ccccc2)cc1F [L01.124, 3-(3-fluoro-4-methyl-phenyl)-1-phenylurea] | 13.268 | 0.951 | 0.928 ng/mL and 0.902 ng/mL and 1.024 ng/mL | 19.235 | 14.1 | 14.1 |
